Test results from PubChem BioAssay (NCI).
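Where inhibition never reached the appropriate level, the endpoint shown equals the highest concentration tested. Otherwise, values were interpolated linearly from a five-concentration, 48-hour dose response in 96-well plates. Here, GI50 denotes the concentration required for 50% inhibition of growth. The concentration for full growth arrest is given as TGI.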

Columns and labels:
Assay in all cases: NCI tumour cell line growth inhibition, 48 h
786-0 renal = test system: 786-0 renal
A498 renal = test system: A498 renal
A549 NSCLC = test system: A549 NSCLC
ACHN renal = test system: ACHN renal
BT-549 breast = test system: BT-549 breast
CAKI-1 renal = test system: CAKI-1 renal
CCRF-CEM leukemia = test system: CCRF-CEM leukemia
COLO 205 colon = test system: COLO 205 colon
DU-145 prostate = test system: DU-145 prostate
EKVX NSCLC = test system: EKVX NSCLC
HCC-2998 colon = test system: HCC-2998 colon
HCT-116 colon = test system: HCT-116 colon
HCT-15 colon = test system: HCT-15 colon
HL-60(TB) leukemia = test system: HL-60(TB) leukemia
HOP-62 NSCLC = test system: HOP-62 NSCLC
HOP-92 NSCLC = test system: HOP-92 NSCLC
HS 578T breast = test system: HS 578T breast
HT29 colon = test system: HT29 colon
IGROV1 ovarian = test system: IGROV1 ovarian
K-562 leukemia = test system: K-562 leukemia
KM12 colon = test system: KM12 colon
LOX IMVI melanoma = test system: LOX IMVI melanoma
M14 melanoma = test system: M14 melanoma
MALME-3M melanoma = test system: MALME-3M melanoma
MCF7 breast = test system: MCF7 breast
MDA-MB-231 breast = test system: MDA-MB-231 breast
MDA-MB-435 = test system: MDA-MB-435
MOLT-4 leukemia = test system: MOLT-4 leukemia
NCI-H226 lung = test system: NCI-H226 lung
NCI-H23 lung = test system: NCI-H23 lung
NCI-H460 lung = test system: NCI-H460 lung
NCI-H522 lung = test system: NCI-H522 lung
NCI/ADR-RES ovarian = test system: NCI/ADR-RES ovarian
OVCAR-3 ovarian = test system: OVCAR-3 ovarian
OVCAR-4 ovarian = test system: OVCAR-4 ovarian
OVCAR-5 ovarian = test system: OVCAR-5 ovarian
OVCAR-8 ovarian = test system: OVCAR-8 ovarian
PC-3 prostate = test system: PC-3 prostate
RPMI-8226 leukemia = test system: RPMI-8226 leukemia
RXF 393 renal = test system: RXF 393 renal
SF-268 CNS = test system: SF-268 CNS
SF-295 CNS = test system: SF-295 CNS
SF-539 CNS = test system: SF-539 CNS
SK-MEL-2 melanoma = test system: SK-MEL-2 melanoma
SK-MEL-28 melanoma = test system: SK-MEL-28 melanoma
SK-MEL-5 melanoma = test system: SK-MEL-5 melanoma
SK-OV-3 ovarian = test system: SK-OV-3 ovarian
SN12C renal = test system: SN12C renal
SNB-19 CNS = test system: SNB-19 CNS
SNB-75 CNS = test system: SNB-75 CNS
SR leukemia = test system: SR leukemia
SW-620 colon = test system: SW-620 colon
T-47D breast = test system: T-47D breast
TK-10 renal = test system: TK-10 renal
U251 CNS = test system: U251 CNS
UACC-257 melanoma = test system: UACC-257 melanoma
UACC-62 melanoma = test system: UACC-62 melanoma
UO-31 renal = test system: UO-31 renal

Structure (SMILES): O=C(NC(Cc1c[nH]c2ccccc12)C(=O)Nc1ccc(Br)cc1)OCc1ccccc1 (configuration not stated)
- TGI (786-0 renal): 25.2 µM
- TGI (A498 renal): 23.7 µM
- TGI (A549 NSCLC): > 100 µM
- TGI (ACHN renal): 60.3 µM
- TGI (BT-549 breast): 29.8 µM
- TGI (CAKI-1 renal): 34.6 µM
- TGI (CCRF-CEM leukemia): 36 µM
- TGI (COLO 205 colon): 24.7 µM
- TGI (DU-145 prostate): 29.2 µM
- TGI (EKVX NSCLC): 22.3 µM
- TGI (HCC-2998 colon): 23.1 µM
- TGI (HCT-116 colon): 23.7 µM
- TGI (HCT-15 colon): 26.7 µM
- TGI (HL-60(TB) leukemia): 22.2 µM
- TGI (HOP-62 NSCLC): 23.7 µM
- TGI (HOP-92 NSCLC): 19.1 µM
- TGI (HS 578T breast): 56.3 µM
- TGI (HT29 colon): 21.6 µM
- TGI (IGROV1 ovarian): 27.6 µM
- TGI (K-562 leukemia): 51.3 µM
- TGI (KM12 colon): 21.7 µM
- TGI (LOX IMVI melanoma): 22.7 µM
- TGI (M14 melanoma): 27.6 µM
- TGI (MALME-3M melanoma): 34.1 µM
- TGI (MCF7 breast): 29.3 µM
- TGI (MDA-MB-231 breast): 22.9 µM
- TGI (MDA-MB-435): 22.1 µM
- TGI (MOLT-4 leukemia): 38.9 µM
- TGI (NCI-H226 lung): 31.4 µM
- TGI (NCI-H23 lung): 26.5 µM
- TGI (NCI-H460 lung): 20.1 µM
- TGI (NCI-H522 lung): 28.6 µM
- TGI (NCI/ADR-RES ovarian): 54.3 µM
- TGI (OVCAR-3 ovarian): 36.6 µM
- TGI (OVCAR-4 ovarian): 23.6 µM
- TGI (OVCAR-5 ovarian): 35.1 µM
- TGI (OVCAR-8 ovarian): 30.3 µM
- TGI (PC-3 prostate): 24.5 µM
- TGI (RPMI-8226 leukemia): 34.2 µM
- TGI (RXF 393 renal): 22.2 µM
- TGI (SF-268 CNS): 37.7 µM
- TGI (SF-295 CNS): 23.9 µM
- TGI (SF-539 CNS): 29.2 µM
- TGI (SK-MEL-2 melanoma): 19.2 µM
- TGI (SK-MEL-28 melanoma): 30.5 µM
- TGI (SK-MEL-5 melanoma): 22.5 µM
- TGI (SK-OV-3 ovarian): 46.3 µM
- TGI (SN12C renal): 22.5 µM
- TGI (SNB-19 CNS): 90.8 µM
- TGI (SNB-75 CNS): 34.7 µM
- TGI (SR leukemia): 47.4 µM
- TGI (SW-620 colon): 54.6 µM
- TGI (T-47D breast): 53 µM
- TGI (TK-10 renal): 52.8 µM
- TGI (U251 CNS): 25.1 µM
- TGI (UACC-257 melanoma): 23.5 µM
- TGI (UACC-62 melanoma): 22 µM
- TGI (UO-31 renal): 27.4 µM

Structure (SMILES): COc1ccc(CN2C(=O)/C(=C\C(=O)c3ccc(OCCN4CCCCC4)cc3)c3ccccc32)cc1
- GI50 (786-0 renal): 1.66 µM
- TGI (786-0 renal): 3.11 µM
- GI50 (A498 renal): 13.5 µM
- TGI (A498 renal): 27 µM
- GI50 (A549 NSCLC): 15.9 µM
- TGI (A549 NSCLC): 31.2 µM
- GI50 (ACHN renal): 1.69 µM
- TGI (ACHN renal): 3.05 µM
- GI50 (BT-549 breast): 5.25 µM
- TGI (BT-549 breast): 16.5 µM
- GI50 (CAKI-1 renal): 5.09 µM
- TGI (CAKI-1 renal): 18.1 µM
- GI50 (CCRF-CEM leukemia): 3.01 µM
- TGI (CCRF-CEM leukemia): 14 µM
- GI50 (COLO 205 colon): 1.86 µM
- TGI (COLO 205 colon): 3.97 µM
- GI50 (DU-145 prostate): 3.35 µM
- TGI (DU-145 prostate): 11.5 µM
- GI50 (EKVX NSCLC): 4.94 µM
- TGI (EKVX NSCLC): 19.6 µM
- GI50 (HCC-2998 colon): 2.4 µM
- TGI (HCC-2998 colon): 5.05 µM
- GI50 (HCT-116 colon): 1.54 µM
- TGI (HCT-116 colon): 2.88 µM
- GI50 (HCT-15 colon): 1.67 µM
- TGI (HCT-15 colon): 3.37 µM
- GI50 (HL-60(TB) leukemia): 2.35 µM
- TGI (HL-60(TB) leukemia): 6.43 µM
- GI50 (HOP-62 NSCLC): 20.2 µM
- TGI (HOP-62 NSCLC): 35.4 µM
- GI50 (HOP-92 NSCLC): 1.64 µM
- TGI (HOP-92 NSCLC): 3.89 µM
- GI50 (HS 578T breast): 3.79 µM
- TGI (HS 578T breast): 25.5 µM
- GI50 (HT29 colon): 1.8 µM
- TGI (HT29 colon): 3.57 µM
- GI50 (IGROV1 ovarian): 2.08 µM
- TGI (IGROV1 ovarian): 4.48 µM
- GI50 (K-562 leukemia): 2.31 µM
- TGI (K-562 leukemia): 10.4 µM
- GI50 (KM12 colon): 12 µM
- TGI (KM12 colon): 28.6 µM
- GI50 (LOX IMVI melanoma): 1.65 µM
- TGI (LOX IMVI melanoma): 3.04 µM
- GI50 (M14 melanoma): 1.83 µM
- TGI (M14 melanoma): 3.85 µM
- GI50 (MALME-3M melanoma): 1.82 µM
- TGI (MALME-3M melanoma): 3.41 µM
- GI50 (MCF7 breast): 1.85 µM
- TGI (MCF7 breast): 4.6 µM
- GI50 (MDA-MB-231 breast): 2.15 µM
- TGI (MDA-MB-231 breast): 4.56 µM
- GI50 (MDA-MB-435): 3.12 µM
- TGI (MDA-MB-435): 12.3 µM
- GI50 (MOLT-4 leukemia): 2.26 µM
- TGI (MOLT-4 leukemia): 6.26 µM
- GI50 (NCI-H226 lung): 14.9 µM
- TGI (NCI-H226 lung): 32.2 µM
- GI50 (NCI-H23 lung): 6.68 µM
- TGI (NCI-H23 lung): 21.6 µM
- GI50 (NCI-H460 lung): 7.67 µM
- TGI (NCI-H460 lung): 22.3 µM
- GI50 (NCI-H522 lung): 1.97 µM
- TGI (NCI-H522 lung): 3.78 µM
- GI50 (NCI/ADR-RES ovarian): 3.84 µM
- TGI (NCI/ADR-RES ovarian): 22.5 µM
- GI50 (OVCAR-3 ovarian): 1.93 µM
- TGI (OVCAR-3 ovarian): 3.94 µM
- GI50 (OVCAR-4 ovarian): 2.62 µM
- TGI (OVCAR-4 ovarian): 8.13 µM
- GI50 (OVCAR-5 ovarian): 1.88 µM
- TGI (OVCAR-5 ovarian): 5.94 µM
- GI50 (PC-3 prostate): 2.7 µM
- TGI (PC-3 prostate): 5.55 µM
- GI50 (RPMI-8226 leukemia): 2.31 µM
- TGI (RPMI-8226 leukemia): 5.62 µM
- GI50 (RXF 393 renal): 1.69 µM
- TGI (RXF 393 renal): 3.22 µM
- GI50 (SF-268 CNS): 4.03 µM
- TGI (SF-268 CNS): 19.5 µM
- GI50 (SF-295 CNS): 13.8 µM
- TGI (SF-295 CNS): 31.8 µM
- GI50 (SF-539 CNS): 1.9 µM
- TGI (SF-539 CNS): 3.67 µM
- GI50 (SK-MEL-2 melanoma): 13.8 µM
- TGI (SK-MEL-2 melanoma): 27.9 µM
- GI50 (SK-MEL-28 melanoma): 1.98 µM
- TGI (SK-MEL-28 melanoma): 4.02 µM
- GI50 (SK-MEL-5 melanoma): 11 µM
- TGI (SK-MEL-5 melanoma): 23.5 µM
- GI50 (SK-OV-3 ovarian): 18.4 µM
- TGI (SK-OV-3 ovarian): 34.3 µM
- GI50 (SN12C renal): 1.74 µM
- TGI (SN12C renal): 3.5 µM
- GI50 (SNB-19 CNS): 4.63 µM
- TGI (SNB-19 CNS): 17.1 µM
- GI50 (SNB-75 CNS): 12.8 µM
- TGI (SNB-75 CNS): 27.6 µM
- GI50 (SR leukemia): 2.04 µM
- TGI (SR leukemia): 7.4 µM
- GI50 (SW-620 colon): 1.74 µM
- TGI (SW-620 colon): 3.51 µM
- GI50 (T-47D breast): 1.64 µM
- TGI (T-47D breast): 3.29 µM
- GI50 (TK-10 renal): 1.69 µM
- TGI (TK-10 renal): 3.18 µM
- GI50 (U251 CNS): 2.24 µM
- TGI (U251 CNS): 5.15 µM
- GI50 (UACC-257 melanoma): 16.8 µM
- TGI (UACC-257 melanoma): 30.8 µM
- GI50 (UACC-62 melanoma): 1.67 µM
- TGI (UACC-62 melanoma): 3.13 µM
- GI50 (UO-31 renal): 1.57 µM
- TGI (UO-31 renal): 2.92 µM
